Values of other authors in patent US20230120480A1, “METHODS FOR REMOVING CONTAMINANTS FROM PLANT-DERIVED PHARMACEUTICALS” (priority 2021, published 2023).

What was measured:
[1] = system: humans

Q: For `Cc1cc(O)c2c(c1)OC(C)(C)c1ccc(C)cc1-2` [Cannabiorcool], which “Water Soluble?” value is on record?
A: No

Q: With `CCCCCc1cc(O)c2c(c1)OC(C)(C)[C@@H]1CC[C@](C)(O)[C@@H](O)[C@@H]21` [Cannabiripsol] as the compound, how does the “Water Soluble?” value read?
A: No

Q: For `CCCCCc1cc(O)c2c(c1)OC(C)(C)C1=C2C(O)C(C)(O)CC1` (stereo not shown) [Cannabitriol], which “Water Soluble?” value is on record?
A: No

Q: For `CCCc1cc(O)c2c(c1)OC(C)(C)C1=C2C(O)C(C)(O)CC1` (stereo not shown) [Cannabitriolvarin], which “Water Soluble?” value is on record?
A: No

Q: With `CCCc1cc(O)c2c(c1)OC(C)(C)c1ccc(C)cc1-2` [Cannabivarin] as the compound, how does the “Water Soluble?” value read?
A: No

Q: For `CCCCCc1cc(O)c2c(c1)OC(C)(C)C1CC=C(C)CC21` (stereo not shown) [Delta-8-tetrahydrocannabinol], which “Water Soluble?” value is on record?
A: No

Q: With `CCCCCc1cc2c(c(O)c1C(=O)O)[C@@H]1CC(C)=CC[C@H]1C(C)(C)O2` [Delta-8-tetrahydrocannabinolic acid] as the compound, how does the “Water Soluble?” value read?
A: Yes

Q: Which “Water Soluble?” value does the source give for `CCCCCc1cc(O)c2c(c1)OC(C)(C)[C@@H]1CCC(C)=C[C@@H]21` [Delta-9-tetrahydrocannabinol, reference compound] here?
A: No

Q: For `CCCCc1cc(O)c2c(c1)OC(C)(C)C1CCC(C)=CC21` (stereo not shown) [Delta-9-tetrahydrocannabinol-C4], which “Water Soluble?” value is on record?
A: No

Q: For `CCCCCc1cc2c(c(O)c1C(=O)O)[C@@H]1C=C(C)CC[C@H]1C(C)(C)O2` [Delta-9-tetrahydrocannabinolic acid A], which “Water Soluble?” value is on record?
A: Yes

Q: With `CCCCCc1cc(O)c2c(c1C(=O)O)OC(C)(C)[C@@H]1CCC(C)=C[C@@H]21` [Delta-9-tetrahydrocannabinolic acid B] as the compound, how does the “Water Soluble?” value read?
A: Yes

Q: With `CCCCc1cc2c(c(O)c1C(=O)O)[C@@H]1C=C(C)CC[C@H]1C(C)(C)O2` [Delta-9-tetrahydrocannabinolic acid-C4] as the compound, how does the “Water Soluble?” value read?
A: Yes

Q: For `CC1=CC2c3c(O)cc(C)cc3OC(C)(C)C2CC1` (stereo not shown) [Delta-9-tetrahydrocannabiorcol], which “Water Soluble?” value is on record?
A: No

Q: Which “Water Soluble?” value does the source give for `CC1=CC2c3c(cc(C)c(C(=O)O)c3O)OC(C)(C)C2CC1` (stereo not shown) [Delta-9-tetrahydrocannabiorcolic acid] here?
A: Yes

Q: Which “Water Soluble?” value does the source give for `CCCc1cc2c(c(O)c1C(=O)O)[C@@H]1C=C(C)CC[C@H]1C(C)(C)O2` [Delta-9-tetrahydrocannabivarinic acid] here?
A: Yes

Q: With `CCCCOCCOCCOCc1cc2c(cc1CCC)OCO2` [Piperonyl butoxide] as the compound, how does the toxicity to humans [1] read?
A: non-toxic

Q: Which “Water Soluble?” value does the source give for Cannabifuran here?
A: No

Q: For Cannbicitran, which “Water Soluble?” value is on record?
A: No

Q: With Dehydrocannabifuran as the compound, how does the “Water Soluble?” value read?
A: No
